Patent publication US12428406B2 (PMV Pharmaceuticals, Inc., priority 2019, dated 2025)

biological target: T1, p53 Y220C (Homo sapiens, UniProt P04637, Y220C); test: In vitro DNA binding activity assay (HTRF / TR-FRET): stabilization of p53 Y220C and increase of its DNA binding activity; format: biochemical; conditions: recombinant His-tagged p53 Y220C DNA binding domain (aa 94-312), biotin-labeled consensus DNA, incubated at 27° C. or 29° C. for 60 min
T1 construct: The recombinant protein was a truncation mutant containing only amino acids 94-312 of p53; made in house; host or cells: E. coli
T1 sequence (P04637 94-312, change not shown): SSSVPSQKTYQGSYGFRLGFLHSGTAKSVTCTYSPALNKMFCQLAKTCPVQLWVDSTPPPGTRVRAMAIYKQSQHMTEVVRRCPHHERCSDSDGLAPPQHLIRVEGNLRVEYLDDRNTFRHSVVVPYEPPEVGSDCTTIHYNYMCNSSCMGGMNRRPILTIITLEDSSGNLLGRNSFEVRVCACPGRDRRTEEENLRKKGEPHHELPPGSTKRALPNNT
Method in brief: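 Stabilization of the mutant is inferred from increased binding of His-tagged p53 Y220C to a biotin-labeled consensus DNA, detected by HTRF with europium-streptavidin and APC-anti-His antibody. The concentration giving a 50% rise over compound-free binding is reported as SC150.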

SC150 (concentration of the compound required to increase the DNA binding activity by 50%), + (+ = 0 μM ≤ SC150 < 0.05 μM):
CS(=O)(=O)c1ccc(NCC#Cc2cc3c(N[C@H]4CC[C@H](N5CCOCC5)CC4)cccc3n2CC(F)(F)F)c(OCC#N)c1 [Compound 185A, 2-(5-methanesulfonyl-2-{[3-(4-{[(1R,4R)-4-(morpholin-4-yl)cyclohexyl]amino}-1-(2,2,2-trifluoroethyl)-1H-indol-2-yl)prop-2-yn-1-yl]amino}phenoxy)acetonitrile]
CS(=O)(=O)c1ccc(NCC#Cc2cc3c(N[C@H]4CC[C@@H](N5CCOCC5)CC4)cccc3n2CC(F)(F)F)c(OCC#N)c1 [Compound 186A, 2-(5-methanesulfonyl-2-{[3-(4-{[(1S,4S)-4-(morpholin-4-yl)cyclohexyl]amino}-1-(2,2,2-trifluoroethyl)-1H-indol-2-yl)prop-2-yn-1-yl]amino}phenoxy)acetonitrile]
CNS(=O)(=O)c1ccc(NCC#Cc2cc3c(N[C@H]4CC[C@H](N5CCOCC5)CC4)cccc3n2CC(F)(F)F)c(OC)c1 [Compound 187A, 3-methoxy-N-methyl-4-{[3-(4-{[(1R,4R)-4-(morpholin-4-yl)cyclohexyl]amino}-1-(2,2,2-trifluoroethyl)-1H-indol-2-yl)prop-2-yn-1-yl]amino}benzene-1-sulfonamide]
COc1cc(S(C)(=O)=O)ccc1NCC#Cc1cc2c(N[C@H]3CC[C@H](N4CC(S(C)(=O)=O)C4)CC3)cccc2n1CC(F)(F)F [Compound 188A, 2-{3-[(4-methane-sulfonyl-2-methoxy-phenyl)amino]prop-1-yn-1-yl}-N-[(1R,4R)-4-(3-methanesulfonyl-azetidin-1-yl)cyclohexyl]-1-(2,2,2-trifluoroethyl)-1H-indol-4-amine]
COc1cc(S(N)(=O)=O)ccc1NCC#Cc1cc2c(N[C@H]3CC[C@H](N4CC(S(C)(=O)=O)C4)CC3)cccc2n1CC(F)(F)F [Compound 190A, 3-methoxy-4-{[3-(4-{[(1R,4R)-4-(3-methanesulfonyl-azetidin-1-yl)cyclo-hexyl]amino}-1-(2,2,2-trifluoroethyl)-1H-indol-2-yl)prop-2-yn-1-yl]amino}benzene-1-sulfonamide]
CNC(=O)c1ccc(NCC#Cc2cc3c(N[C@H]4CC[C@H](N5CC(S(C)(=O)=O)C5)CC4)cccc3n2CC(F)(F)F)c(OC)c1 [Compound 192A, 3-methoxy-N-methyl-4-{[3-(4-{[(1R,4R)-4-(3-methanesulfonyl-azetidin-1-yl)cyclo-hexyl]amino}-1-(2,2,2-trifluoroethyl)-1H-indol-2-yl)prop-2-yn-1-yl]amino}benzamide]
COc1cc(S(C)(=O)=O)ccc1NCC#Cc1cc2c(N[C@H]3CC[C@H](N4CC5(CCC5)C4)CC3)cccc2n1CC(F)(F)F [Compound 194A, 2-{3-[(4-methane-sulfonyl-2-methoxy-phenyl)amino]prop-1-yn-1-yl}-N-[(1R,4R)-4-{2-azaspiro[3.3]heptan-2-yl}cyclohexyl]-1-(2,2,2-trifluoroethyl)-1H-indol-4-amine]
CNC(=O)c1ccc(NCC#Cc2cc3c(N[C@H]4CC[C@H](N5CC6(CCC6)C5)CC4)cccc3n2CC(F)(F)F)c(OC)c1 [Compound 196A, 3-methoxy-N-methyl-4-{[3-(4-{[(1R,4R)-4-{2-azaspiro[3.3]heptan-2-yl}cyclohexyl]amino}-1-(2,2,2-trifluoroethyl)-1H-indol-2-yl)prop-2-yn-1-yl]amino}benzamide]
COc1cc(S(N)(=O)=O)ccc1NCC#Cc1cc2c(N[C@H]3CC[C@H](N4CC5(CCC5)C4)CC3)cccc2n1CC(F)(F)F [Compound 198A, 3-methoxy-4-{[3-(4-{[(1R,4R)-4-{2-azaspiro[3.3]heptan-2-yl}cyclohexyl]amino}-1-(2,2,2-trifluoroethyl)-1H-indol-2-yl)prop-2-yn-1-yl]amino}benzene-1-sulfonamide]
COc1cc(S(C)(=O)=O)ccc1NCC#Cc1cc2c(N[C@H]3CC[C@H](N4CC5(COC5)C4)CC3)cccc2n1CC(F)(F)F [Compound 202A, 2-{3-[(4-methanesulfonyl-2-methoxyphenyl)amino]prop-1-yn-1-yl}-N-[(1R,4R)-4-{2-oxa-6-azaspiro[3.3]heptan-6-yl}cyclohexyl]-1-(2,2,2-trifluoroethyl)-1H-indol-4-amine]
COc1cc(S(C)(=O)=O)ccc1NCC#Cc1cc2c(N[C@H]3CC[C@@H](N4CC5(COC5)C4)CC3)cccc2n1CC(F)(F)F [Compound 203A, 2-{3-[(4-methanesulfonyl-2-methoxyphenyl)amino]prop-1-yn-1-yl}-N-[(1S,4S)-4-{2-oxa-6-azaspiro[3.3]heptan-6-yl}cyclohexyl]-1-(2,2,2-trifluoroethyl)-1H-indol-4-amine]
COc1cc(S(N)(=O)=O)ccc1NCC#Cc1cc2c(N[C@H]3CC[C@@H](N4CC5(COC5)C4)CC3)cccc2n1CC(F)(F)F [Compound 204A, 3-methoxy-4-{[3-(4-{[(1R,4R)-4-{2-oxa-6-azaspiro[3.3]heptan-6-yl}cyclohexyl]amino}-1-(2,2,2-trifluoroethyl)-1H-indol-2-yl)prop-2-yn-1-yl]amino}benzene-1-sulfonamide]
COc1cc(S(N)(=O)=O)ccc1NCC#Cc1cc2c(N[C@H]3CC[C@H](N4CC5(COC5)C4)CC3)cccc2n1CC(F)(F)F [Compound 205A, 3-methoxy-4-{[3-(4-{[(1S,4S)-4-{2-oxa-6-azaspiro[3.3]heptan-6-yl}cyclohexyl]amino}-1-(2,2,2-trifluoroethyl)-1H-indol-2-yl)prop-2-yn-1-yl]amino}benzene-1-sulfonamide]
CCC(=O)NS(=O)(=O)c1ccc(NCC#Cc2cc3c(N[C@H]4CC[C@H](N5CC6(COC6)C5)CC4)cccc3n2CC(F)(F)F)c(OC)c1 [Compound 206A, N-(3-methoxy-4-{[3-(4-{[(1R,4R)-4-{2-oxa-6-azaspiro[3.3]heptan-6-yl}cyclo-hexyl]amino}-1-(2,2,2-trifluoroethyl)-1H-indol-2-yl)prop-2-yn-1-yl]amino}benzene-sulfonyl)propanamide]
CCC(=O)NS(=O)(=O)c1ccc(NCC#Cc2cc3c(N[C@H]4CC[C@@H](N5CC6(COC6)C5)CC4)cccc3n2CC(F)(F)F)c(OC)c1 [Compound 207A, N-(3-methoxy-4-{[3-(4-{[(1S,4S)-4-{2-oxa-6-azaspiro[3.3]heptan-6-yl}cyclo-hexyl]amino}-1-(2,2,2-trifluoroethyl)-1H-indol-2-yl)prop-2-yn-1-yl]amino}benzene-sulfonyl)propanamide]
COc1cc(S(=O)(=O)NC(C)=O)ccc1NCC#Cc1cc2c(N[C@H]3CC[C@H](N4CC5(COC5)C4)CC3)cccc2n1CC(F)(F)F [Compound 208A, N-(3-methoxy-4-{[3-(4-{[(1R,4R)-4-{2-oxa-6-azaspiro[3.3]heptan-6-yl}cyclohexyl]amino}-1-(2,2,2-trifluoro-ethyl)-1H-indol-2-yl)prop-2-yn-1-yl]amino}benzene-sulfonyl)acetamide]
COc1cc(S(=O)(=O)NC(C)=O)ccc1NCC#Cc1cc2c(N[C@H]3CC[C@@H](N4CC5(COC5)C4)CC3)cccc2n1CC(F)(F)F [Compound 209A, N-(3-methoxy-4-{[3-(4-{[(1S,4S)-4-{2-oxa-6-azaspiro[3.3]heptan-6-yl}cyclohexyl]amino}-1-(2,2,2-trifluoroethyl)-1H-indol-2-yl)prop-2-yn-1-yl]amino}benzene-sulfonyl)acetamide]
CS(=O)(=O)c1ccc(NCC#Cc2cc3c(N[C@H]4CC[C@H](N5CC6(COC6)C5)CC4)cccc3n2CC(F)(F)F)c(OCCF)c1 [Compound 210A, N-((1R,4R)-4-(2-oxa-6-azaspiro[3.3]heptan-6-yl)cyclohexyl)-2-(3-((2-(2-fluoroethoxy)-4-(methylsulfonyl)phenyl)amino)prop-1-yn-1-yl)-1-(2,2,2-trifluoroethyl)-1H-indol-4-amine]
COc1cc(C(N)=O)ccc1NCC#Cc1cc2c(N[C@H]3CC[C@H](N4CC5(COC5)C4)CC3)cccc2n1CC(F)(F)F [Compound 212A, 3-methoxy-4-{[3-(4-{[(1R,4R)-4-{2-oxa-6-azaspiro[3.3]heptan-6-yl}cyclohexyl]amino}-1-(2,2,2-trifluoroethyl)-1H-indol-2-yl)prop-2-yn-1-yl]amino}benzamide]
COc1cc(C(N)=O)ccc1NCC#Cc1cc2c(N[C@H]3CC[C@@H](N4CC5(COC5)C4)CC3)cccc2n1CC(F)(F)F [Compound 213A, 3-methoxy-4-{[3-(4-{[(1S,4S)-4-{2-oxa-6-azaspiro[3.3]heptan-6-yl}cyclohexyl]amino}-1-(2,2,2-trifluoroethyl)-1H-indol-2-yl)prop-2-yn-1-yl]amino}benzamide]
